Source: the supplement of paper PMC10307832

What was measured:
Assay in all cases: relative viability (nuclei count vs DMSO), 5 days (fraction); higher = more cells survive
[1] = compound: CC1=CC=C(C=C1)C(=O)CN2C3=C(CCCC3)SC2=N [Pifithrin_alpha] + CC(=O)Nc1cccc(-n2c(=O)n(C3CC3)c(=O)c3c(Nc4ccc(I)cc4F)n(C)c(=O)c(C)c32)c1 [Trametinib] (partner 0.02 µM)
Outline: (§1)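 Relative viability equals treated-well nuclei counts divided by vehicle-well nuclei counts. Counts came from 4× images of lung cancer cell lines grown in 1536-well plates for 5 days after pin-tool dosing on the day after seeding. Dosing used one drug alone or a fixed anchor-drug dose plus five library-drug doses (not always all listed) in √10 steps, and values are medians of duplicate plates.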

[2] = compound: CC1=CC=C(C=C1)C(=O)CN2C3=C(CCCC3)SC2=N [Pifithrin_alpha] + COc1cccc2cc(-c3nc([C@H]4CC[C@H](C(=O)O)CC4)n4ncnc(N)c34)[nH]c12 [OSI-027] (partner 0.5 µM)
Outline: as §1

Bemcentinib + Linsitinib = compound: Nc1nc(Nc2ccc3c(c2)CC[C@@H](N2CCCC2)CC3)nn1-c1cc2c(nn1)-c1ccccc1CCC2 [Bemcentinib] + C[C@]1(O)C[C@@H](c2nc(-c3ccc4ccc(-c5ccccc5)nc4c3)c3c(N)nccn32)C1 [Linsitinib] (partner 1 µM)
Outline: as §1

Bemcentinib + Tozasertib = compound: Nc1nc(Nc2ccc3c(c2)CC[C@@H](N2CCCC2)CC3)nn1-c1cc2c(nn1)-c1ccccc1CCC2 [Bemcentinib] + Cc1cc(Nc2cc(N3CCN(C)CC3)nc(Sc3ccc(NC(=O)C4CC4)cc3)n2)n[nH]1 [Tozasertib] (partner 0.1 µM)
Outline: as §1

NCI-H1666
relative viability ([1]; first compound 1 µM): 0.8
relative viability ([1]; first compound 3.162 µM): 0.737
relative viability ([1]; first compound 10 µM): 0.791
relative viability ([1]; first compound 31.62 µM): 0.706
relative viability ([1]; first compound 100 µM): 0.494
relative viability ([2]; first compound 1 µM): 0.789
relative viability ([2]; first compound 3.162 µM): 0.771
relative viability ([2]; first compound 10 µM): 0.651
relative viability ([2]; first compound 31.62 µM): 0.642
relative viability ([2]; first compound 100 µM): 0.585
relative viability (Bemcentinib + Linsitinib; first compound 0.04 µM): 0.932
relative viability (Bemcentinib + Linsitinib; first compound 0.1265 µM): 0.872
relative viability (Bemcentinib + Linsitinib; first compound 0.4 µM): 0.958
relative viability (Bemcentinib + Linsitinib; first compound 1.265 µM): 0.972
relative viability (Bemcentinib + Linsitinib; first compound 4 µM): 0.707
relative viability (Bemcentinib + Tozasertib; first compound 0.04 µM): 0.605
relative viability (Bemcentinib + Tozasertib; first compound 0.1265 µM): 0.619
relative viability (Bemcentinib + Tozasertib; first compound 0.4 µM): 0.621
relative viability (Bemcentinib + Tozasertib; first compound 1.265 µM): 0.594
relative viability (Bemcentinib + Tozasertib; first compound 4 µM): 0.595

NCI-H1734
relative viability ([1]; first compound 1 µM): 0.716
relative viability ([1]; first compound 3.162 µM): 0.769
relative viability ([1]; first compound 10 µM): 0.648
relative viability ([1]; first compound 31.62 µM): 0.623
relative viability ([1]; first compound 100 µM): 0.666
relative viability ([2]; first compound 1 µM): 0.58
relative viability ([2]; first compound 3.162 µM): 0.633
relative viability ([2]; first compound 10 µM): 0.585
relative viability ([2]; first compound 31.62 µM): 0.482
relative viability ([2]; first compound 100 µM): 0.491
relative viability (Bemcentinib + Linsitinib; first compound 0.04 µM): 0.856
relative viability (Bemcentinib + Linsitinib; first compound 0.1265 µM): 0.913
relative viability (Bemcentinib + Linsitinib; first compound 0.4 µM): 0.952
relative viability (Bemcentinib + Linsitinib; first compound 1.265 µM): 1.01
relative viability (Bemcentinib + Linsitinib; first compound 4 µM): 0.836
relative viability (Bemcentinib + Tozasertib; first compound 0.04 µM): 0.245
relative viability (Bemcentinib + Tozasertib; first compound 0.1265 µM): 0.28
relative viability (Bemcentinib + Tozasertib; first compound 0.4 µM): 0.25
relative viability (Bemcentinib + Tozasertib; first compound 1.265 µM): 0.256
relative viability (Bemcentinib + Tozasertib; first compound 4 µM): 0.27

NCI-H1755
relative viability ([1]; first compound 1 µM): 0.724
relative viability ([1]; first compound 3.162 µM): 0.682
relative viability ([1]; first compound 10 µM): 0.706
relative viability ([1]; first compound 31.62 µM): 0.694
relative viability ([1]; first compound 100 µM): 0.738
relative viability ([2]; first compound 1 µM): 0.57
relative viability ([2]; first compound 3.162 µM): 0.687
relative viability ([2]; first compound 10 µM): 0.675
relative viability ([2]; first compound 31.62 µM): 0.525
relative viability ([2]; first compound 100 µM): 0.566
relative viability (Bemcentinib + Linsitinib; first compound 0.04 µM): 1.03
relative viability (Bemcentinib + Linsitinib; first compound 0.1265 µM): 1.02
relative viability (Bemcentinib + Linsitinib; first compound 0.4 µM): 1.04
relative viability (Bemcentinib + Linsitinib; first compound 1.265 µM): 1.04
relative viability (Bemcentinib + Linsitinib; first compound 4 µM): 1.11
relative viability (Bemcentinib + Tozasertib; first compound 0.04 µM): 0.64
relative viability (Bemcentinib + Tozasertib; first compound 0.1265 µM): 0.742
relative viability (Bemcentinib + Tozasertib; first compound 0.4 µM): 0.626
relative viability (Bemcentinib + Tozasertib; first compound 1.265 µM): 0.607
relative viability (Bemcentinib + Tozasertib; first compound 4 µM): 0.613

NCI-H1793
relative viability ([1]; first compound 1 µM): 0.419
relative viability ([1]; first compound 3.162 µM): 0.371
relative viability ([1]; first compound 10 µM): 0.365
relative viability ([1]; first compound 31.62 µM): 0.496
relative viability ([1]; first compound 100 µM): 0.437
relative viability ([2]; first compound 3.162 µM): 0.249
relative viability ([2]; first compound 10 µM): 0.201
relative viability ([2]; first compound 31.62 µM): 0.218
relative viability ([2]; first compound 100 µM): 0.198
relative viability (Bemcentinib + Linsitinib; first compound 0.04 µM): 0.662
relative viability (Bemcentinib + Linsitinib; first compound 0.1265 µM): 1.09
relative viability (Bemcentinib + Linsitinib; first compound 0.4 µM): 0.81
relative viability (Bemcentinib + Linsitinib; first compound 1.265 µM): 1.07
relative viability (Bemcentinib + Linsitinib; first compound 4 µM): 0.992
relative viability (Bemcentinib + Tozasertib; first compound 0.04 µM): 0.313
relative viability (Bemcentinib + Tozasertib; first compound 0.1265 µM): 0.371
relative viability (Bemcentinib + Tozasertib; first compound 0.4 µM): 0.314
relative viability (Bemcentinib + Tozasertib; first compound 4 µM): 0.371

NCI-H1915
relative viability ([1]; first compound 1 µM): 0.291
relative viability ([1]; first compound 3.162 µM): 0.296
relative viability ([1]; first compound 10 µM): 0.302
relative viability ([1]; first compound 100 µM): 0.308
relative viability ([2]; first compound 1 µM): 0.567
relative viability ([2]; first compound 3.162 µM): 0.628
relative viability ([2]; first compound 100 µM): 0.584
relative viability (Bemcentinib + Linsitinib; first compound 0.04 µM): 1.05
relative viability (Bemcentinib + Linsitinib; first compound 0.1265 µM): 1.13
relative viability (Bemcentinib + Linsitinib; first compound 0.4 µM): 1.1
relative viability (Bemcentinib + Linsitinib; first compound 1.265 µM): 1.11
relative viability (Bemcentinib + Linsitinib; first compound 4 µM): 1.1
relative viability (Bemcentinib + Tozasertib; first compound 0.04 µM): 0.511
relative viability (Bemcentinib + Tozasertib; first compound 0.1265 µM): 0.462
relative viability (Bemcentinib + Tozasertib; first compound 0.4 µM): 0.44
relative viability (Bemcentinib + Tozasertib; first compound 1.265 µM): 0.468
relative viability (Bemcentinib + Tozasertib; first compound 4 µM): 0.443

NCI-H1944
relative viability ([1]; first compound 1 µM): 0.395
relative viability ([1]; first compound 3.162 µM): 0.358
relative viability ([1]; first compound 10 µM): 0.368
relative viability ([1]; first compound 31.62 µM): 0.319
relative viability ([1]; first compound 100 µM): 0.374
relative viability ([2]; first compound 1 µM): 0.346
relative viability ([2]; first compound 3.162 µM): 0.362
relative viability ([2]; first compound 10 µM): 0.351
relative viability ([2]; first compound 31.62 µM): 0.252
relative viability ([2]; first compound 100 µM): 0.293
relative viability (Bemcentinib + Linsitinib; first compound 0.04 µM): 1.25
relative viability (Bemcentinib + Linsitinib; first compound 0.1265 µM): 1.08
relative viability (Bemcentinib + Linsitinib; first compound 0.4 µM): 1.28
relative viability (Bemcentinib + Linsitinib; first compound 1.265 µM): 1.16
relative viability (Bemcentinib + Linsitinib; first compound 4 µM): 1.1
relative viability (Bemcentinib + Tozasertib; first compound 0.04 µM): 0.258
relative viability (Bemcentinib + Tozasertib; first compound 0.1265 µM): 0.261
relative viability (Bemcentinib + Tozasertib; first compound 0.4 µM): 0.255
relative viability (Bemcentinib + Tozasertib; first compound 1.265 µM): 0.251
relative viability (Bemcentinib + Tozasertib; first compound 4 µM): 0.242

NCI-H1975
relative viability ([1]; first compound 1 µM): 0.251
relative viability ([1]; first compound 3.162 µM): 0.29
relative viability ([1]; first compound 10 µM): 0.232
relative viability ([1]; first compound 31.62 µM): 0.275
relative viability ([1]; first compound 100 µM): 0.252
relative viability ([2]; first compound 1 µM): 0.731
relative viability ([2]; first compound 3.162 µM): 0.583
relative viability ([2]; first compound 10 µM): 0.319
relative viability ([2]; first compound 31.62 µM): 0.309
relative viability ([2]; first compound 100 µM): 0.276
relative viability (Bemcentinib + Linsitinib; first compound 0.04 µM): 0.981
relative viability (Bemcentinib + Linsitinib; first compound 0.1265 µM): 1.03
relative viability (Bemcentinib + Linsitinib; first compound 0.4 µM): 1.03
relative viability (Bemcentinib + Linsitinib; first compound 1.265 µM): 1.06
relative viability (Bemcentinib + Linsitinib; first compound 4 µM): 1.02
relative viability (Bemcentinib + Tozasertib; first compound 0.04 µM): 0.689
relative viability (Bemcentinib + Tozasertib; first compound 0.1265 µM): 0.881
relative viability (Bemcentinib + Tozasertib; first compound 0.4 µM): 1.02
relative viability (Bemcentinib + Tozasertib; first compound 1.265 µM): 0.672
relative viability (Bemcentinib + Tozasertib; first compound 4 µM): 0.818

NCI-H1993
relative viability ([1]; first compound 1 µM): 0.485
relative viability ([1]; first compound 3.162 µM): 0.418
relative viability ([1]; first compound 10 µM): 0.508
relative viability ([1]; first compound 31.62 µM): 0.397
relative viability ([1]; first compound 100 µM): 0.4
relative viability ([2]; first compound 1 µM): 0.509
relative viability ([2]; first compound 3.162 µM): 0.537
relative viability ([2]; first compound 10 µM): 0.571
relative viability ([2]; first compound 31.62 µM): 0.65
relative viability ([2]; first compound 100 µM): 0.59
relative viability (Bemcentinib + Linsitinib; first compound 0.04 µM): 0.699
relative viability (Bemcentinib + Linsitinib; first compound 0.1265 µM): 0.735
relative viability (Bemcentinib + Linsitinib; first compound 0.4 µM): 0.776
relative viability (Bemcentinib + Linsitinib; first compound 1.265 µM): 0.773
relative viability (Bemcentinib + Linsitinib; first compound 4 µM): 0.804
relative viability (Bemcentinib + Tozasertib; first compound 0.04 µM): 0.548
relative viability (Bemcentinib + Tozasertib; first compound 0.1265 µM): 0.551
relative viability (Bemcentinib + Tozasertib; first compound 0.4 µM): 0.592
relative viability (Bemcentinib + Tozasertib; first compound 1.265 µM): 0.56
relative viability (Bemcentinib + Tozasertib; first compound 4 µM): 0.588
